According to US9682995B2, “Amino-substituted isothiazoles” (BAYER PHARMA AKTIENGESELLSCHAFT, priority 2013, dated 2017):

Key:
[1] = system: spindle assembly checkpoint; assay: SAC-Formation - Paclitaxel-Induced Assay; format: cell-based; settings: Homo sapiens; HeLa cells, paclitaxel 0.05 μM, 24 h, phosphorylated histone H3 on serine 10
Description: The spindle assembly checkpoint assures the proper segregation of chromosomes during mitosis. Upon entry into mitosis, chromosomes begin to condensate which is accompanied by the phosphorylation of histone H3 on serine 10. Dephosphorylation of histone H3 on serine 10 begins in anaphase and ends at early telophase. Accordingly, phosphorylation of histone H3 on serine 10 can be utilized as a marker of cells in mitosis. Nocodazole is a microtubule destabilizing substance. Paclitaxel is a microtubule stabilizing compound. Thus, nocodazole as well as paclitaxel interfere with microtubule dynamics and mobilize the spindle assembly checkpoint. […] The mitotic breakthrough can be detected by the decrease of cells with phosphorylation of histone H3 on serine 10. This decline is used as a marker to determine the capability of compounds of the present invention to induce a mitotic breakthrough. The typical morphological alteration of nuclei with a prematurely completed mitosis after SAC-inhibition can be monitored via image analysis routines supporting those findings.
The nocodazole and paclitaxel variations were used to focus on compounds that are capable of inhibiting a SAC induced by both microtubule destabilization as well as microtubule stabilization. When SAC inducing agents and compounds are given simultaneously, inhibitors that effectively block the SAC during formation or abrogation are identified. When cells are incubated with a SAC inducing agent and the SAC interfering compound is given after a defined time, inhibitors are identified that effectively block SAC abrogation.
Cultivated cells of the human cervical tumor cell line HeLa (ATCC CCL-2) were plated at a density of 1000 cells/well in a 1536-well microtiter plate in 2 μl PAA Ham's F12 Medium supplemented with 1% (v/v) glutamine, 1% (v/v) penicillin, 1% (v/v) streptomycin and 10% (v/v) fetal calf serum. After incubation overnight at 37° C., 10 μl/well paclitaxel at a final concentration of 0.05 μM were added to cells. Test compounds solubilized in dimethyl sulfoxide (DMSO) were added at various concentrations (0 μM, as well as in the range of 0.005 μM-20 μM; the final concentration of the solvent DMSO was 0.5% (v/v)). Cells were incubated for 24 h at 37° C. in the presence of test compounds in combination with paclitaxel. Thereafter, cells were fixed in 4% (v/v) paraformaldehyde in phosphate buffered saline (PBS) at 4° C. overnight then permeabilized in 0.1% (v/v) Triton X™ 100 in PBS at room temperature for 20 min and blocked in 0.5% (v/v) bovine serum albumin (BSA) in PBS at room temperature for 15 min. After washing with PBS, 5 μl/well antibody solution (anti-phospho-histone H3 clone 3H10, FITC; Millipore, Cat #16-222; 1:1000 dilution) was added to cells, which were incubated for 2 h at room temperature. Afterwards, cells were washed with PBS and 5 μl/well solution of HOECHST 33342 dye (5 μg/ml) was added to cells and cells were incubated 15 min at room temperature in the dark. Cells were washed twice with PBS then covered with PBS and stored at 4° C. until analysis. Images were acquired with a PERKIN ELMER OPERA™ High-Content Analysis reader. Images were analyzed with image analysis software MetaXpress™ from Molecular devices utilizing the Mitotic Index application module. In this assay both labels HOECHST 33342 and phosphorylated Histone H3 on serine 10 were measured. HOECHST 33342 labels the DNA and is used to count the cell number. The staining of phosphorylated Histone H3 on serine 10 determines the number of mitotic cells. […] Otherwise cells were arrested at G2/M phase of the cell cycle progression. The raw assay data were further analyzed by four-parametric hill equation using Genedata's Assay Analyzer and Condoseo software.

[2] = target: human kinase Mps-1 (Homo sapiens (Human), UniProt P33981); assay: Mps-1 kinase assay (TR-FRET); format: biochemical; settings: 10 μM ATP; read-out: Mps1 avg (IC50 [mol/l])
Chain of human kinase Mps-1 (P33981 whole entry): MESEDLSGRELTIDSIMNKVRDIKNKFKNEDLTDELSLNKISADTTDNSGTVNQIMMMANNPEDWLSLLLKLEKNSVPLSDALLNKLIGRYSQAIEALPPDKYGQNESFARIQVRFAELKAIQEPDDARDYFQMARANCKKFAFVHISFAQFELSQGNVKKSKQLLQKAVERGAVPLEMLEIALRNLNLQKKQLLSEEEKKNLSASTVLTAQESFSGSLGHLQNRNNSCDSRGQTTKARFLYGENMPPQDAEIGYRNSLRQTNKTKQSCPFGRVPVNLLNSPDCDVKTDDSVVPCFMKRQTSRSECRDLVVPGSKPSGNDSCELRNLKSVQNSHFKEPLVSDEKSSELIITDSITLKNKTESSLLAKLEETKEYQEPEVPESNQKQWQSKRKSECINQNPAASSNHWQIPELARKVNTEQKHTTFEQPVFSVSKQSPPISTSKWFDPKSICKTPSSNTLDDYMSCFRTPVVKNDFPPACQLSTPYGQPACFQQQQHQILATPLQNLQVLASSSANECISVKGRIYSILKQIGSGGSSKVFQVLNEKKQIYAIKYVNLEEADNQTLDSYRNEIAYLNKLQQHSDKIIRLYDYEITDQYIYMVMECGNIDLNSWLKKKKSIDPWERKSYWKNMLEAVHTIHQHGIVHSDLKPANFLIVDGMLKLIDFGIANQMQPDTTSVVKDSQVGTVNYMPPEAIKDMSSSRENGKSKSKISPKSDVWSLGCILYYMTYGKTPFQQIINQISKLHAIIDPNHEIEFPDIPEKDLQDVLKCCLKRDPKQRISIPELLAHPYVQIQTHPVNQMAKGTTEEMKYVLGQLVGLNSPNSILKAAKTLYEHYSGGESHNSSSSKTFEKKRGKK
Protocol: The human kinase Mps-1 phosphorylates a biotinylated substrate peptide. Detection of the phosphorylated product is achieved by time-resolved fluorescence resonance energy transfer (TR-FRET) from Europium-labelled anti-phospho-Serine/Threonine antibody as donor to streptavidin labelled with cross-linked allophycocyanin (SA-XLent) as acceptor. Compounds are tested for their inhibition of the kinase activity.
N-terminally GST-tagged human full length recombinant Mps-1 kinase (purchased from Invitrogen, Karslruhe, Germany, cat. no PV4071) was used. As substrate for the kinase reaction a biotinylated peptide of the amino-acid sequence biotin-Ahx-PWDPDDADITEILG (C-terminus in amide form, purchased from Biosyntan GmbH, Berlin) was used.
For the assay 50 nl of a 100-fold concentrated solution of the test compound in DMSO was pipetted into a black low volume 384 well microtiter plate (Greiner Bio-One, Frickenhausen, Germany), 2 μl of a solution of Mps-1 in assay buffer [0.1 mM sodium-ortho-vanadate, 10 mM MgCl2, 2 mM DTT, 25 mM Hepes pH 7.7, 0.05% BSA (w/v), 0.001% Pluronic F-127] were added and the mixture was incubated for 15 min at 22° C. to allow pre-binding of the test compounds to Mps-1 before the start of the kinase reaction. Then the kinase reaction was started by the addition of 3 μl of a solution of 16.7 μM adenosine-tri-phosphate (ATP, 16.7 μM=>final conc. in the 5 μl assay volume is 10 μM) and peptide substrate (1.67 μM=>final conc. in the 5 μl assay volume is 1 μM) in assay buffer and the resulting mixture was incubated for a reaction time of 60 min at 22° C. The concentration of Mps-1 in the assay was adjusted to the activity of the enzyme lot and was chosen appropriate to have the assay in the linear range, typical enzyme concentrations were in the range of about 0.5 nM (final conc. in the 5 μl assay volume). The reaction was stopped by the addition of 5 μl of a solution of TR-FRET detection reagents (100 mM Hepes pH 7.4, 0.1% BSA, 40 mM EDTA, 140 nM Streptavidin-XLent [#61GSTXLB, Fa. Cis Biointernational, Marcoule, France], 1.5 nM anti-phospho(Ser/Thr)-Europium-antibody [#AD0180, PerkinElmer LAS, Rodgau-Jugesheim, Germany]. Instead of the 1.5 nM anti-phospho(Ser/Thr)-Europium-antibody a mixture of 2 nM unlabeled anti-phospho ser/thr-pro antibody MPM-2 [Millipore cat. #05-368] and 1 nM LANCE EU-W1024 labeled anti-mouse IgG antibody [Perkin-Elmer, product no. AD0077] can be used).
The resulting mixture was incubated 1 h at 22° C. to allow the binding of the phosphorylated peptide to the anti-phospho(Ser/Thr)-Europium-antibody. Subsequently the amount of phosphorylated substrate was evaluated by measurement of the resonance energy transfer from the Europium-labelled anti-phospho(Ser/Thr) antibody to the Streptavidin-XLent. Therefore, the fluorescence emissions at 620 nm and 665 nm after excitation at 350 nm was measured in a Viewlux TR-FRET reader (PerkinElmer LAS, Rodgau-Jugesheim, Germany). The “blank-corrected normalized ratio” (a Viewlux specific readout, similar to the traditional ratio of the emissions at 665 nm and at 622 nm, in which blank and Eu-donor crosstalk are subtracted from the 665 nm signal before the ratio is calculated) was taken as the measure for the amount of phosphorylated substrate. The data were normalised (enzyme reaction without inhibitor=0% inhibition, all other assay components but no enzyme=100% inhibition).

Row | IC50 [1] | IC50 [2] | Structure (SMILES)
1 | 1400 nM | > 20 µM | CCOC(=O)c1cnc(Nc2snc(C)c2C(=O)Nc2ccc(F)c(F)c2)o1 [Example 96, Ethyl 2-({4-[(3,4-difluorophenyl)carbamoyl]-3-methyl-1,2-thiazol-5-yl}amino)-1,3-oxazole-5-carboxylate]
2 | 2900 nM | > 20 µM | CCc1ccccc1NC(=O)c1c(C)nsc1Nc1nc2ccccc2o1 [Example 11, 5-(1,3-Benzoxazol-2-ylamino)-N-(2-ethylphenyl)-3-methyl-1,2-thiazole-4-carboxamide]
3 | 20000 nM | > 20 µM | CNC(=O)c1ccnc(Nc2snc(C)c2C(=O)Nc2ccc(F)c(F)c2)c1 [Example 108, 2-({4-[(3,4-Difluorophenyl)-carbamoyl]-3-methyl-1,2-thiazol-5-yl}amino)-N-methyliso-nicotinamide]
4 | > 20000 nM | > 20 µM | COC(=O)c1ccc(Nc2snc(C)c2C(=O)Nc2ccc(OC)nc2)nc1 [Example 31, Methyl 6-({4-[(6-methoxypyridin-3-yl)carbamoyl]-3-methyl-1,2-thiazol-5-yl}amino)-nicotinate]
5 | 790 nM | > 20 µM | Cc1nsc(Nc2nc3c(C(F)(F)F)cccc3s2)c1C(=O)Nc1ccc(Cl)c(Cl)c1 [Example 102, N-(3,4-Dichlorophenyl)-3-methyl-5-{[4-(trifluoromethyl)-1,3-benzothiazol-2-yl]amino}-1,2-thiazole-4-carboxamide]
6 | 3800 nM | > 20 µM | Cc1nsc(Nc2ccc(C#N)cn2)c1C(=O)Nc1ccc(OC(C)C)nc1 [Example 110, 5-[(5-Cyanopyridin-2-yl)amino]-N-(6-isopropoxyridin-3-yl)-3-methyl-1,2-thiazole-4-carboxamide]
7 | 3700 nM | > 20 µM | COc1ccc(NC(=O)c2c(C)nsc2Nc2ncccc2C#N)cn1 [Example 36, 5-[(3-Cyanopyridin-2-yl)amino]-N-(6-methoxypyridin-3-yl)-3-methyl-1,2-thiazole-4-carboxamide]
8 | 3400 nM | > 20 µM | CCOC(=O)c1coc(Nc2snc(C)c2C(=O)Nc2ccc(OC)nc2)n1 [Example 100, Ethyl 2-({4-[(6-methoxypyridin-3-yl)carbamoyl]-3 methyl-1,2-thiazol-5-yl}amino)-1,3-oxazole-4-carboxylate]
9 | 320 nM | > 20 µM | CCOC(=O)c1sc(Nc2snc(C)c2C(=O)Nc2ccc(OC)nc2)nc1C [Example 30, Ethyl 2-({4-[(6-methoxypyridin-3-yl)carbamoyl]-3-methyl-1,2-thiazol-5-yl}amino)-4-methyl-1,3-thiazole-5-carboxylate]
10 | 1200 nM | > 20 µM | CCc1ccccc1NC(=O)c1c(C)nsc1Nc1ccnc(C#N)n1 [Example 6, 5-[(2-Cyanopyrimidin-4-yl)amino]-N-(2-ethylphenyl)-3-methyl-1,2-thiazole-4-carboxamide]
11 | 3600 nM | > 20 µM | CCc1ccccc1NC(=O)c1c(C)nsc1Nc1nc2ccccc2nc1C [Example 21, N-(2-Ethylphenyl)-3-methyl-5-[(3-methylquinoxalin-2-yl)amino]-1,2-thiazole-4-carboxamide]
12 | 7500 nM | > 20 µM | Cc1nsc(Nc2cncc(C(=O)N(C)C)n2)c1C(=O)Nc1ccc(F)c(F)c1 [Example 104, 6-({4-[(3,4-Difluorophenyl)-carbamoyl]-3-methyl-1,2-thiazol-5-yl}amino)-N,N-dimethyl-pyrazine-2-carboxamide]
13 | 760 nM | > 20 µM | CCc1ccccc1NC(=O)c1c(C)nsc1Nc1nc2ccccc2s1 [Example 14, 5-(1,3-Benzothiazol-2-ylamino)-N-(2-ethylphenyl)-3-methyl-1,2-thiazole-4-carboxamide]
14 | 120 nM | > 20 µM | Cc1nsc(Nc2cnc3ccccc3n2)c1C(=O)Nc1ccc(OC2CCCCC2)nc1 [Example 115, N-[6-(Cyclohexyloxy)pyridin-3-yl]-3-methyl-5-(quinoxalin-2-ylamino)-1,2-thiazole-4-carboxamide]
15 | 2500 nM | > 20 µM | CCOc1ccc(NC(=O)c2c(C)nsc2Nc2cnc3ccccc3n2)cn1 [Example 119, N-(6-Ethoxypyridin-3-yl)-3-methyl-5-(quinoxalin-2-ylamino)-1,2-thiazole-4-carboxamide]
16 | 72 nM | > 20 µM | Cc1nsc(Nc2ccc(C#N)cn2)c1C(=O)Nc1ccc(F)c(F)c1 [Example 28, 5-[(5-Cyanopyridin-2-yl)amino]-N-(3,4-difluorophenyl)-3-methyl-1,2-thiazole-4-carboxamide]
17 | 890 nM | > 20 µM | COc1ccc(NC(=O)c2c(C)nsc2Nc2cnc3ccc(Cl)cc3n2)cn1 [Example 42, 5-[(7-Chloroquinoxalin-2-yl)amino]-N-(6-methoxypyridin-3-yl)-3-methyl-1,2-thiazole-4-carboxamide]
18 | 3000 nM | > 20 µM | CCc1ccccc1NC(=O)c1c(C)nsc1Nc1cc(-n2ccnc2)ncn1 [Example 9, N-(2-Ethylphenyl)-5-{[6-(1H-imidazol-1-yl)pyrimidin-4-yl]amino}-3-methyl-1,2-thiazole-4-carboxamide]
